Experimental data as given in PubChem BioAssay (NCI).
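Protocol summary: plate cells (96-well), add compound at 5 concentrations, incubate 48 h, interpolate endpoints linearly. TGI: concentration producing complete growth inhibition.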

Columns and labels:
Assay in all cases: growth of human tumour cells (NCI), 48 h
LXFL 529 NSCLC = test system: LXFL 529 NSCLC
M14 melanoma = test system: M14 melanoma
SF-539 CNS = test system: SF-539 CNS
HOP-18 NSCLC = test system: HOP-18 NSCLC
SF-295 CNS = test system: SF-295 CNS
OVCAR-4 ovarian = test system: OVCAR-4 ovarian
EKVX NSCLC = test system: EKVX NSCLC
NCI-H23 lung = test system: NCI-H23 lung
HCC-2998 colon = test system: HCC-2998 colon
KM12 colon = test system: KM12 colon
UACC-62 melanoma = test system: UACC-62 melanoma
U251 CNS = test system: U251 CNS
SW-620 colon = test system: SW-620 colon
M19-MEL melanoma = test system: M19-MEL melanoma
SK-MEL-2 melanoma = test system: SK-MEL-2 melanoma
RPMI-8226 leukemia = test system: RPMI-8226 leukemia
SNB-75 CNS = test system: SNB-75 CNS
OVCAR-3 ovarian = test system: OVCAR-3 ovarian
SF-268 CNS = test system: SF-268 CNS
K-562 leukemia = test system: K-562 leukemia
KM20L2 colon = test system: KM20L2 colon
SN12C renal = test system: SN12C renal
MOLT-4 leukemia = test system: MOLT-4 leukemia
SK-MEL-5 melanoma = test system: SK-MEL-5 melanoma
DMS 114 small cell lung = test system: DMS 114 small cell lung
NCI-H460 lung = test system: NCI-H460 lung
HT29 colon = test system: HT29 colon
NCI-H522 lung = test system: NCI-H522 lung
COLO 205 colon = test system: COLO 205 colon
A498 renal = test system: A498 renal
HCT-116 colon = test system: HCT-116 colon
MALME-3M melanoma = test system: MALME-3M melanoma
HOP-92 NSCLC = test system: HOP-92 NSCLC
SNB-19 CNS = test system: SNB-19 CNS
786-0 renal = test system: 786-0 renal
OVCAR-5 ovarian = test system: OVCAR-5 ovarian
DLD-1 colon = test system: DLD-1 colon
SK-OV-3 ovarian = test system: SK-OV-3 ovarian
CCRF-CEM leukemia = test system: CCRF-CEM leukemia
UACC-257 melanoma = test system: UACC-257 melanoma
HOP-62 NSCLC = test system: HOP-62 NSCLC
DMS 273 small cell lung = test system: DMS 273 small cell lung
CAKI-1 renal = test system: CAKI-1 renal
IGROV1 ovarian = test system: IGROV1 ovarian
A549 NSCLC = test system: A549 NSCLC
OVCAR-8 ovarian = test system: OVCAR-8 ovarian
ACHN renal = test system: ACHN renal
TK-10 renal = test system: TK-10 renal
HL-60(TB) leukemia = test system: HL-60(TB) leukemia
NCI-H226 lung = test system: NCI-H226 lung
UO-31 renal = test system: UO-31 renal
SK-MEL-28 melanoma = test system: SK-MEL-28 melanoma
RXF 393 renal = test system: RXF 393 renal
LOX IMVI melanoma = test system: LOX IMVI melanoma
HCT-15 colon = test system: HCT-15 colon

In the case of `COc1cc([C@@H]2c3cc4c(cc3[C@@H](NC(=O)c3ccc(N)cc3)C3COC(=O)[C@@H]32)OCO4)cc(OC)c1O` (stereo not given in full), the TGI (LXFL 529 NSCLC) is reported as greater than 100 µM, the TGI (M14 melanoma) is reported as greater than 100 µM and the TGI (SF-539 CNS) is reported as 3.87 µM. It also gave a TGI (HOP-18 NSCLC) greater than 100 µM, a TGI (SF-295 CNS) of 95.8 µM and a TGI (OVCAR-4 ovarian) greater than 100 µM. It also gave a TGI (EKVX NSCLC) of 23.7 µM, a TGI (NCI-H23 lung) of 4.97 µM and a TGI (HCC-2998 colon) of 17.2 µM. It also gave a TGI (KM12 colon) of 13.8 µM, a TGI (UACC-62 melanoma) of 10.9 µM and a TGI (U251 CNS) of 3.5 µM. The TGI (SW-620 colon) was 20.8 µM, the TGI (M19-MEL melanoma) was greater than 100 µM and the TGI (SK-MEL-2 melanoma) was 28.3 µM. For the same molecule, the TGI (RPMI-8226 leukemia) was 20.2 µM, the TGI (SNB-75 CNS) was 6.56 µM and the TGI (OVCAR-3 ovarian) was 30.4 µM. It also gave a TGI (SF-268 CNS) greater than 100 µM, a TGI (K-562 leukemia) of 37.7 µM and a TGI (KM20L2 colon) of 9.57 µM. For the same molecule, the TGI (SN12C renal) was 4.54 µM, the TGI (MOLT-4 leukemia) was 3.78 µM and the TGI (SK-MEL-5 melanoma) was 21.6 µM. For the same molecule, the TGI (DMS 114 small cell lung) was 9.71 µM, the TGI (NCI-H460 lung) was 10.9 µM and the TGI (HT29 colon) was 19.4 µM. It also gave a TGI (NCI-H522 lung) of 9.23 µM, a TGI (COLO 205 colon) of 28.4 µM and a TGI (A498 renal) of 11.8 µM. The TGI (HCT-116 colon) was 17 µM, the TGI (MALME-3M melanoma) was 19.8 µM and the TGI (HOP-92 NSCLC) was greater than 100 µM. The TGI (SNB-19 CNS) was 17.4 µM, the TGI (786-0 renal) was 3.84 µM and the TGI (OVCAR-5 ovarian) was 34.5 µM. The TGI (DLD-1 colon) was 35.4 µM, the TGI (SK-OV-3 ovarian) was 8.06 µM and the TGI (CCRF-CEM leukemia) was 13.1 µM. For the same molecule, the TGI (UACC-257 melanoma) was greater than 100 µM, the TGI (HOP-62 NSCLC) was 3.95 µM and the TGI (DMS 273 small cell lung) was 16.3 µM. It also gave a TGI (CAKI-1 renal) of 89.4 µM, a TGI (IGROV1 ovarian) of 20.2 µM and a TGI (A549 NSCLC) of 12.8 µM. It also gave a TGI (OVCAR-8 ovarian) of 16.3 µM, a TGI (ACHN renal) of 4.9 µM and a TGI (TK-10 renal) of 29.7 µM. For the same molecule, the TGI (HL-60(TB) leukemia) was 4.35 µM, the TGI (NCI-H226 lung) was 6.91 µM and the TGI (UO-31 renal) was 31.1 µM. For the same molecule, the TGI (SK-MEL-28 melanoma) was 50.8 µM, the TGI (RXF 393 renal) was 67.6 µM and the TGI (LOX IMVI melanoma) was 18.7 µM. It also gave a TGI (HCT-15 colon) of 32 µM.
